Test results as given in paper PMC12883167 (Bioorganic & medicinal chemistry letters, 2019).
Where “and” joins values, the source holds several entries; their conditions need not be identical. Identical values can stand only once. Numbered stars: 1 amine (or outer) side, 2 acyl side, 3 side chain; on linkers, the order of the positions; unused ones are H or OH. Square brackets hold non-standard residues; d marks the D form. Peptide text beside a SMILES is read from it. * marks the point of attachment. Phg = N[C@H](C(=O)O)c1ccccc1; NMeV = CN[C@H](C(=O)O)C(C)C; Ac6c = NC1(C(=O)O)CCCCC1; Ac5c = NC1(C(=O)O)CCCC1; Cbz = O=C(OCc1ccccc1)*; CO = O=C([*:1])[*:2]; NHPh = c1ccc(N*)cc1; CH2F = FC*

Tested on: panel of 26 proteases, primarily caspases and cathepsins
Test: Selectivity panel of 26 proteases
Type: biochemical
Settings: profiling at lower concentrations

SMILES	selectivity in protease panel
CC(C)[C@H](NC(=O)c1ccc(Br)cc1)C(=O)N1CCCC[C@H]1C(=O)N[C@@H](CCCNC(=N)N)C(=O)CF [Compound 46]	the most selective compound

Tested on: OCI-Ly3 cells
Test: OCI-Ly3 cell proliferation assay
Settings: not given

SMILES	activity in the cell (proliferation) assay, in words
CN[C@H](C(=O)N1CCC[C@H]1C(=O)N[C@@H](CCCNC(=N)N)C(=O)CF)C(C)C [Compound 3] (H-[NMeV]-Pro-Arg-CH2F)	inactive
CCC(=O)[C@H](CCCNC(=N)N)NC(=O)[C@@H]1CCCN1C(=O)[C@@H](NC(=O)[C@H](CC(C)C)NC(=O)OCc1ccccc1)C(C)C [Compound 2]	no activity

Target: T1, MALT1 (Homo sapiens, UniProt Q9UDY8)
T1 sequence (Q9UDY8 1-824): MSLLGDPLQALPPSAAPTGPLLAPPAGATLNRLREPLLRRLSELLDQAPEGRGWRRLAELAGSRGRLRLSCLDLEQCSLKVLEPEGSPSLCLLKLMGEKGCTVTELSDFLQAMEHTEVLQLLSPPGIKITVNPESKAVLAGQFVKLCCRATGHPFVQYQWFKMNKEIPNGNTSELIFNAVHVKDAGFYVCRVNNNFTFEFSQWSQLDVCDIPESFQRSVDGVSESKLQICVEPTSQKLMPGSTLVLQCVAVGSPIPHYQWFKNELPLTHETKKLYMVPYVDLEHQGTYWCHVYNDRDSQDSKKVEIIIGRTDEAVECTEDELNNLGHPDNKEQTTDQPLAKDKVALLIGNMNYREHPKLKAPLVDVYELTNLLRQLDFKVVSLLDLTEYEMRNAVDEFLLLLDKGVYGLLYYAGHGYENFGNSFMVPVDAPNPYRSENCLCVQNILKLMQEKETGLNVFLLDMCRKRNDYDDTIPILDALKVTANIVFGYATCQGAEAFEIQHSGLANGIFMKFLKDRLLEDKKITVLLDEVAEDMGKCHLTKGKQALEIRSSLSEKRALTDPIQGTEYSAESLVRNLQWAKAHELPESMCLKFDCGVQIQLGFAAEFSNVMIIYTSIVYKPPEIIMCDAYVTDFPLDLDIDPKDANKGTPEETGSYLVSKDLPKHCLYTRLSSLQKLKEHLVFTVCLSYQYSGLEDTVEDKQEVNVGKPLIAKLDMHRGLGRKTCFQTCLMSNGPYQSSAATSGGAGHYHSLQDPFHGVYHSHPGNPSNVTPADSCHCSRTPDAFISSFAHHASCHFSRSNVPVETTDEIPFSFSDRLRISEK
Test: MALT1 biochemical assay
Settings: at 5 μM

activity in the biochemical assay	SMILES
no activity	CCC(=O)[C@H](CCCNC(=N)N)NC(=O)[C@@H]1CCCN1C(=O)[C@@H](NC(=O)[C@H](CC(C)C)NC(=O)OCc1ccccc1)C(C)C [Compound 2]

Target: T1, MALT1
Test: not given
Settings: PD studies ref 20; cited from earlier work

SMILES	in vivo inhibition of MALT1 activity
CC(C)[C@H](NC(=O)c1ccc(Br)cc1)C(=O)N1CCC[C@H]1C(=O)N[C@@H](CCCNC(=N)N)C(=O)CF [Compound 22]	in vivo inhibition of MALT1 activity

Target: cathepsin S (Homo sapiens, UniProt P25774)
Test: Protease selectivity profiling, cathepsin S
Type: biochemical
Settings: at 100 nM

cathepsin S, sequence (P25774 115-331, species assumed): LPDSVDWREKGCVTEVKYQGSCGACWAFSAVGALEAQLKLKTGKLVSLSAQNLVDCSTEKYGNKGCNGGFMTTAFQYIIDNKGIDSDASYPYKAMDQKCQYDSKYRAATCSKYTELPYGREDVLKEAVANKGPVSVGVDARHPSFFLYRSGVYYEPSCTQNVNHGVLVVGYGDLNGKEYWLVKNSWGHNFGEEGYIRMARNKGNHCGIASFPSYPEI

activity against cathepsin S	SMILES
active	CC(C)[C@H](NC(=O)c1ccc(Br)cc1)C(=O)N[C@@H](CO)C(=O)N[C@@H](CCCNC(=N)N)C(=O)CF [Compound 44]
highest activity	CC(C)[C@H](NC(=O)c1ccc(Br)cc1)C(=O)N1CCCC[C@H]1C(=O)N[C@@H](CCCNC(=N)N)C(=O)CF [Compound 46]

Target: cathepsin B (Homo sapiens, UniProt P07858)
Test: Protease selectivity profiling, cathepsin B
Type: biochemical
Settings: at 100 nM

activity against cathepsin B	SMILES
active	CC(C)[C@H](NC(=O)c1ccc(Br)cc1)C(=O)N[C@@H](CO)C(=O)N[C@@H](CCCNC(=N)N)C(=O)CF [Compound 44]

Tested on: not listed separately
Test: Plasma levels upon IV and IP dosing in mice
Type: in vivo
Settings: not given

plasma levels	SMILES
moderate plasma levels for several hours	CC(C)[C@H](NC(=O)c1ccc(Br)cc1)C(=O)N1CCC[C@H]1C(=O)N[C@@H](CCCNC(=N)N)C(=O)CF [Compound 22]

Tested on: trypsin
Test: Protease selectivity profiling, trypsin
Type: biochemical
Settings: at 100 nM

SMILES	potency against trypsin
CC(C)[C@H](NC(=O)c1ccc(Br)cc1)C(=O)N1CCC[C@H]1C(=O)N[C@@H](CCCNC(=N)N)C(=O)CF [Compound 22]	> 80%

Tested on: RelB cleavage (MALT1 protease activity) in OCI-Ly3 cells
Test: Inhibition of RelB cleavage in OCI-Ly3 cells by Western blot
Type: cell-based
Settings: at 20 μM

SMILES	inhibition of RelB cleavage
CCC(=O)[C@H](CCCNC(=N)N)NC(=O)[C@@H]1CCCN1C(=O)[C@@H](NC(=O)[C@H](CC(C)C)NC(=O)OCc1ccccc1)C(C)C [Compound 2]	no effects
CC(C)[C@H](NC(=O)OCc1ccccc1)C(=O)N[C@@H](CCCNC(=N)N)C(=O)N1CCC[C@H]1C(=O)N[C@@H](CCCNC(=N)N)C(=O)CF [Z-VRPR-fmk, reference compound]	partial inhibition

Target: T2, MALT1 protease (Homo sapiens, UniProt Q9UDY8)
T2 sequence (Q9UDY8 1-824): T1 sequence (Q9UDY8 1-824)
Test: not given
Type: cell-based
Settings: Cell (Glo), GloSensor reporter, PMA/IO activated Raji cells

SMILES	IC50
CC(C)[C@H](NC(=O)Nc1ccc(Cl)cc1)C(=O)N1CCC[C@H]1C(=O)N[C@@H](CCCNC(=N)N)C(=O)CF [Compound 30]	110 nM
CC(C)[C@H](NC(=O)c1ccc(C(F)(F)F)cc1)C(=O)N1CCC[C@H]1C(=O)N[C@@H](CCCNC(=N)N)C(=O)CF [Compound 25]	230 nM
N=C(N)NCCC[C@H](NC(=O)[C@@H]1CCCN1C(=O)C1(NC(=O)OCc2ccccc2)CCCCC1)C(=O)CF [Compound 37] (Cbz-[Ac6c]-Pro-Arg-CH2F)	6000 nM
CC(C)[C@H](NC(=O)Nc1ccccc1)C(=O)N1CCC[C@H]1C(=O)N[C@@H](CCCNC(=N)N)C(=O)CF [Compound 29] ({NHPh-CO}-Val-Pro-Arg-CH2F)	170 nM
N=C(N)NCCC[C@H](NC(=O)[C@@H]1CCCN1C(=O)[C@@H](NC(=O)c1ccc(Br)cc1)C1CCCCC1)C(=O)CF [Compound 51]	43 nM
N=C(N)NCCC[C@H](NC(=O)[C@@H]1CCCN1C(=O)[C@@H](NC(=O)OCc1ccccc1)c1ccccc1)C(=O)CF [Compound 36] (Cbz-[Phg]-Pro-Arg-CH2F)	1430 nM
CC(C)[C@H](NC(=O)c1ccccc1Br)C(=O)N1CCC[C@H]1C(=O)N[C@@H](CCCNC(=N)N)C(=O)CF [Compound 20]	1110 nM
N=C(N)NCCC[C@H](NC(=O)[C@@H]1CCCN1C(=O)C1(NC(=O)OCc2ccccc2)CCCC1)C(=O)CF [Compound 38] (Cbz-[Ac5c]-Pro-Arg-CH2F)	5380 nM
CC(C)[C@H](NC(=O)c1ccc(C#N)cc1)C(=O)N1CCC[C@H]1C(=O)N[C@@H](CCCNC(=N)N)C(=O)CF [Compound 24]	710 nM
CN[C@H](C(=O)N1CCC[C@H]1C(=O)N[C@@H](CCCNC(=N)N)C(=O)CF)C(C)C [Compound 3] (H-[NMeV]-Pro-Arg-CH2F)	> 20000 nM
CCC(=O)[C@H](CCCNC(=N)N)NC(=O)[C@@H]1CCCN1C(=O)[C@@H](NC(=O)[C@H](CC(C)C)NC(=O)OCc1ccccc1)C(C)C [Compound 2]	> 20000 nM

Other lines, results leading:

IC50	SMILES
180 nM	CC(C)[C@H](NC(=O)c1ccc(Cl)cc1)C(=O)N1CCC[C@H]1C(=O)N[C@@H](CCCNC(=N)N)C(=O)CF [Compound 23]
219 nM	CC(C)[C@H](NC(=O)c1ccc(Br)cc1)C(=O)N1CC[C@H]1C(=O)N[C@@H](CCCNC(=N)N)C(=O)CF [Compound 47]
85 nM	CC(C)[C@H](NC(=O)c1ccc(Br)cc1)C(=O)N1C[C@H](O)C[C@H]1C(=O)N[C@@H](CCCNC(=N)N)C(=O)CF [Compound 45]
174 nM	CC(C)[C@H](NC(=O)c1ccc(Br)cc1)C(=O)N1CCOC[C@H]1C(=O)N[C@@H](CCCNC(=N)N)C(=O)CF [Compound 49]
17500 nM	CC(C)[C@H](NC(=O)c1ccc(Br)cc1)C(=O)N1CCC[C@@H]1C(=O)N[C@@H](CCCNC(=N)N)C(=O)CF [Compound 50]
71 nM and 70 nM	CC(C)[C@H](NC(=O)c1ccc(Br)cc1)C(=O)N1CCC[C@H]1C(=O)N[C@@H](CCCNC(=N)N)C(=O)CF [Compound 22]
327 nM	CC(C)[C@H](NC(=O)c1ccc(Br)cc1)C(=O)N1CCCC[C@H]1C(=O)N[C@@H](CCCNC(=N)N)C(=O)CF [Compound 46]

Tested on: calpain
Test: Protease selectivity profiling, calpain
Type: biochemical
Settings: at 100 nM

SMILES	activity against calpain
CC(C)[C@H](NC(=O)c1ccc(Br)cc1)C(=O)N[C@@H](CO)C(=O)N[C@@H](CCCNC(=N)N)C(=O)CF [Compound 44]	active

Tested on: ABC-DLBCL xenograft models
Test: not given
Settings: two ABC-DLBCL xenograft models ref 20; cited from earlier work

SMILES	effects on tumor growth
CC(C)[C@H](NC(=O)c1ccc(Br)cc1)C(=O)N1CCC[C@H]1C(=O)N[C@@H](CCCNC(=N)N)C(=O)CF [Compound 22]	moderate effects on tumor growth
